Data on three substances can be found in patent US8895048B2, “Templated islet cells and small islet cell clusters for diabetes treatment” (The University of Kansas, priority 2010, dated 2014).

The subject of the assay is beta cells. In words: Relative beta cell adhesion to biomaterial films in 96-well plates. It counts as cell-based, rat. The note with it: attached cells 24 hours after plating and three washes, normalized to empty well; triplicate. The procedure: In a typical experiment, 1% stock solutions of the listed biomaterials first were prepared. Most materials dissolved in deionized water at neutral pH. […] Polymers normally soluble in water (e.g. dextran sulfate, alginate, etc.) can be cross-linked to form the film matrix. Approximately 25 μL of each stock solution was added to three individual wells in 96-well plates and left to evaporate or vacuum dried, thus, depositing a thin biomaterial film at the bottom of each well. […] Several proteins offered commercially to promote cell adhesion on well plates (e.g. fibronectin, laminin, etc.) were prescreened for cell adhesion as well.
A dilute suspension of beta cells was incubated in the 96-well plates overnight and washed three times to remove unbound beta cells. The beta cell suspension was homogeneous and equal aliquots per well were assumed to contain a similar quantity of beta cells. […] In general, mildly hydrophobic polymers performed well for adhering beta cells (Table 1).
Cell adhesion was determined by counting the number of attached cells 24 hours after plating on the biomaterial and following three washes. The counts were normalized to the number of cells that attach to a well bottom lacking a biomaterial (see empty well, control) using the following calculation: number of cells attached in the well of interest/number of cells in empty well. Each experiment was repeated in triplicate.
Fibronectin showed a Relative cell adhesion of 3.7 ± 0.7.

Gelatin came in with a Relative cell adhesion of 2.0 ± 0.2.

Laminin came in with a Relative cell adhesion of 8.7 ± 0.6.
